The supplement of paper PMC10733146

Assays:
Test in all cases: viability relative to DMSO control (fraction); higher = less drug effect (more viable cells)
Details in all cases: 48 h
[1] = system: primary ALL patient cells (S088)
Outline: (§1)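 Cells were incubated for 48 h at 37 °C and 5% CO2 in RPMI-1640 with penicillin/streptomycin, L-glutamine and human serum, at 4 × 10^4 cells per well in 384-well plates with compounds pre-plated at five concentrations, one well each. These were primary mononuclear tumour cells, fresh or cryopreserved, Ficoll-isolated from blood or bone marrow or obtained from processed lymph node. Viability values are CellTiter-Glo luminescence relative to the median of 16 inner DMSO wells.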

[2] = system: primary AML patient cells (S002)
Outline: as §1

[3] = system: primary AML patient cells (S007)
Outline: as §1

[4] = system: primary AML patient cells (S011)
Outline: as §1

[5] = system: primary AML patient cells (S017)
Outline: as §1

[6] = system: primary AML patient cells (S019)
Outline: as §1

[7] = system: primary AML patient cells (S021)
Outline: as §1

[8] = system: primary AML patient cells (S060)
Outline: as §1

[9] = system: primary AML patient cells (S071)
Outline: as §1

[10] = system: primary AML patient cells (S081)
Outline: as §1

[11] = system: primary AML patient cells (S085)
Outline: as §1

[12] = system: primary B-PLL patient cells (S016)
Outline: as §1

[13] = system: primary BL patient cells (S005)
Outline: as §1

[14] = system: primary CLL patient cells (S043)
Outline: as §1

[15] = system: primary DLBCL patient cells (S049)
Outline: as §1

[16] = system: primary DLBCL patient cells (S076)
Outline: as §1

[17] = system: primary T-NHL patient cells (S058)
Outline: as §1

CC(C)c1cc(C(=O)N2Cc3ccc(CN4CCN(C)CC4)cc3C2)c(O)cc1O [Onalespib]
viability ([1]; 0.0032 µM): 0.659
viability ([1]; 0.016 µM): 0.582
viability ([1]; 0.08 µM): 0.255
viability ([1]; 0.4 µM): 0.273
viability ([1]; 2 µM): 0.253
viability ([2]; 0.0032 µM): 0.837
viability ([2]; 0.016 µM): 0.691
viability ([2]; 0.08 µM): 0.333
viability ([2]; 0.4 µM): 0.292
viability ([2]; 2 µM): 0.302
viability ([3]; 0.0032 µM): 0.566
viability ([3]; 0.016 µM): 0.114
viability ([3]; 0.08 µM): 0.0773
viability ([3]; 0.4 µM): 0.102
viability ([3]; 2 µM): 0.111
viability ([4]; 0.0032 µM): 0.712
viability ([4]; 0.016 µM): 0.916
viability ([4]; 0.08 µM): 0.399
viability ([4]; 0.4 µM): 0.684
viability ([4]; 2 µM): 0.66
viability ([5]; 0.0032 µM): 0.93
viability ([5]; 0.016 µM): 1.11
viability ([5]; 0.08 µM): 0.675
viability ([5]; 0.4 µM): 0.33
viability ([5]; 2 µM): 0.281
viability ([6]; 0.0032 µM): 0.594
viability ([6]; 0.016 µM): 1.1
viability ([6]; 0.08 µM): 0.265
viability ([6]; 0.4 µM): 0.57
viability ([6]; 2 µM): 0.371
viability ([7]; 0.0032 µM): 0.874
viability ([7]; 0.016 µM): 0.716
viability ([7]; 0.08 µM): 0.466
viability ([7]; 0.4 µM): 0.523
viability ([7]; 2 µM): 0.58
viability ([8]; 0.0032 µM): 0.967
viability ([8]; 0.016 µM): 1.15
viability ([8]; 0.08 µM): 0.61
viability ([8]; 0.4 µM): 0.169
viability ([8]; 2 µM): 0.109
viability ([9]; 0.0032 µM): 0.847
viability ([9]; 0.016 µM): 0.379
viability ([9]; 0.08 µM): 0.149
viability ([9]; 0.4 µM): 0.169
viability ([9]; 2 µM): 0.168
viability ([10]; 0.0032 µM): 1.05
viability ([10]; 0.016 µM): 1.08
viability ([10]; 0.08 µM): 0.311
viability ([10]; 0.4 µM): 0.0842
viability ([10]; 2 µM): 0.0764
viability ([11]; 0.0032 µM): 0.928
viability ([11]; 0.016 µM): 0.942
viability ([11]; 0.08 µM): 0.334
viability ([11]; 0.4 µM): 0.233
viability ([11]; 2 µM): 0.237
viability ([12]; 0.0032 µM): 0.875
viability ([12]; 0.016 µM): 1.35
viability ([12]; 0.08 µM): 0.668
viability ([12]; 0.4 µM): 0.69
viability ([12]; 2 µM): 0.629
viability ([13]; 0.0032 µM): 1.56
viability ([13]; 0.016 µM): 1.32
viability ([13]; 0.08 µM): 1.42
viability ([13]; 0.4 µM): 0.756
viability ([13]; 2 µM): 0.792
viability ([14]; 0.0032 µM): 0.987
viability ([14]; 0.016 µM): 1.1
viability ([14]; 0.08 µM): 0.811
viability ([14]; 0.4 µM): 0.585
viability ([14]; 2 µM): 0.395

Nc1ccc2ncnc(NCCc3ccc(Oc4ccccc4)cc3)c2c1 [EVP4593]
viability ([1]; 0.008 µM): 0.151
viability ([1]; 0.04 µM): 0.168
viability ([1]; 0.2 µM): 0.147
viability ([1]; 1 µM): 0.108
viability ([1]; 5 µM): 0.088
viability ([2]; 0.008 µM): 0.922
viability ([2]; 0.04 µM): 0.857
viability ([2]; 0.2 µM): 0.753
viability ([2]; 1 µM): 0.668
viability ([2]; 5 µM): 0.726
viability ([3]; 0.008 µM): 0.722
viability ([3]; 0.04 µM): 0.514
viability ([3]; 0.2 µM): 0.379
viability ([3]; 1 µM): 0.257
viability ([3]; 5 µM): 0.217
viability ([4]; 0.008 µM): 0.746
viability ([4]; 0.04 µM): 0.633
viability ([4]; 0.2 µM): 0.617
viability ([4]; 1 µM): 0.467
viability ([4]; 5 µM): 0.459
viability ([5]; 0.008 µM): 0.889
viability ([5]; 0.04 µM): 0.933
viability ([5]; 0.2 µM): 0.875
viability ([5]; 1 µM): 0.901
viability ([5]; 5 µM): 0.795
viability ([6]; 0.008 µM): 0.922
viability ([6]; 0.04 µM): 0.883
viability ([6]; 0.2 µM): 0.84
viability ([6]; 1 µM): 0.82
viability ([6]; 5 µM): 0.764
viability ([7]; 0.008 µM): 0.769
viability ([7]; 0.04 µM): 0.659
viability ([7]; 0.2 µM): 0.572
viability ([7]; 1 µM): 0.437
viability ([7]; 5 µM): 0.439
viability ([8]; 0.008 µM): 1.01
viability ([8]; 0.04 µM): 1
viability ([8]; 0.2 µM): 0.97
viability ([8]; 1 µM): 0.961
viability ([8]; 5 µM): 0.966
viability ([9]; 0.008 µM): 0.768
viability ([9]; 0.04 µM): 0.684
viability ([9]; 0.2 µM): 0.351
viability ([9]; 1 µM): 0.158
viability ([9]; 5 µM): 0.121
viability ([10]; 0.008 µM): 0.859
viability ([10]; 0.04 µM): 0.821
viability ([10]; 0.2 µM): 0.799
viability ([10]; 1 µM): 0.784
viability ([10]; 5 µM): 0.78
viability ([11]; 0.008 µM): 2.31
viability ([11]; 0.04 µM): 0.901
viability ([11]; 0.2 µM): 1.11
viability ([11]; 1 µM): 0.666
viability ([11]; 5 µM): 0.55
viability ([12]; 0.008 µM): 0.929
viability ([12]; 0.04 µM): 0.874
viability ([12]; 0.2 µM): 0.8
viability ([12]; 1 µM): 0.716
viability ([12]; 5 µM): 0.713
viability ([13]; 0.008 µM): 1.01
viability ([13]; 0.04 µM): 0.939
viability ([13]; 0.2 µM): 0.811
viability ([13]; 1 µM): 0.73
viability ([13]; 5 µM): 0.716
viability ([14]; 0.008 µM): 0.794
viability ([14]; 0.04 µM): 0.794
viability ([14]; 0.2 µM): 0.774
viability ([14]; 1 µM): 0.726
viability ([14]; 5 µM): 0.695
viability ([15]; 0.008 µM): 0.89
viability ([15]; 0.04 µM): 0.763
viability ([15]; 0.2 µM): 0.37
viability ([15]; 1 µM): 0.257
viability ([15]; 5 µM): 0.197
viability ([16]; 0.008 µM): 0.999
viability ([16]; 0.04 µM): 0.989
viability ([16]; 0.2 µM): 0.741
viability ([16]; 1 µM): 0.657
viability ([16]; 5 µM): 0.551
viability ([17]; 0.008 µM): 1.09
viability ([17]; 0.04 µM): 0.934
viability ([17]; 0.2 µM): 0.784
viability ([17]; 1 µM): 0.809
viability ([17]; 5 µM): 0.715
